Source: ChEMBL document CHEMBL5352452, “Design, synthesis and pharmacological evaluation of β-carboline derivatives as potential antitumor agent via targeting autophagy” (Eur J Med Chem, 2023)
Calls of active or inactive are those of the source. The calls are words filed in the database; no cut-off is given here.

Columns and labels:
HCT-116 [1] = assay: Induction of apoptosis in human HCT-116 cells assessed as early apoptotic cells at 2 uM incubated for 24 hrs in presence of Z-VAD-FMK by annexin V FITC/propidium iodide staining based flow cytometry (reference value: 6.3 %); type: functional
CT26 = assay: Antitumor activity against […] CT26 cells xenografted in C57BL/6 mouse assessed as reduction in tumor volume at 45 mg/kg, ip administered once every two days measured after 8 days; type: functional, organism-based; details: time 8.0 day
ECa-109 cell line = assay: Antiproliferative activity against human Eca-109 cells assessed as inhibition of cell growth measured after 48 hrs by MTT assay; type: functional, cell-based; details: ECa-109, 48 h
HCT-116 [2] = assay: Induction of apoptosis in human HCT-116 cells assessed as early apoptotic cells at 2 uM incubated for 24 hrs by annexin V FITC/propidium iodide staining based flow cytometry (reference value: 4.7%); type: functional
HCT-116 [3] = assay: Induction of apoptosis in human HCT-116 cells assessed as late apoptotic cells at 1 uM incubated for 24 hrs by annexin V FITC/propidium iodide staining based flow cytometry (reference value: 4.6%); type: functional
HCT-116 [4] = assay: Induction of autophagy in human HCT-116 cells assessed as increase in LC3-II expression upto 5 uM incubated for 24 hrs by Western blot analysis; type: functional, cell-based
HT-29 = assay: Antiproliferative activity against human HT-29 cells assessed as inhibition of cell growth measured after 48 hrs by MTT assay; type: functional, cell-based; details: HT-29, 48 h
HCT-116 [5] = assay: Induction of autophagy in human HCT-116 cells assessed as increase in p62 expression at 3 uM measured upto 36 hrs by Western blot analysis; type: functional, cell-based
HCT-116 [6] = assay: Inhibition of colony formation in human HCT-116 cells at 1 to 4 uM measured after 14 days by crystal violet staining based analysis; type: functional, cell-based; details: dose 1-4 µM, time 14.0 day
HCT-116 [7] = assay: Induction of autophagy in human HCT-116 cells assessed as increase in p62 expression at 3 uM measured after 48 to 60 hrs by Western blot analysis; type: functional, cell-based; details: time 48-60 hrs
HCT-116 [8] = assay: Induction of apoptosis in ATG7 knockout human HCT-116 cells assessed as increase in caspase 3 expression upto 4 uM incubated for 24 hrs by Western blot analysis; type: functional, cell-based
HCT-116 [9] = assay: Downregulation of Myc-v1 in human HCT-116 cells at 2 uM incubated for 24 hrs by RNA sequencing analysis; type: functional, cell-based
HCT-116 [10] = assay: Induction of autophagy in human HCT-116 cells expressing assessed as LC3B-EGFP-mCherry at 2 to 4 uM incubated for 24 hrs by DAPI staining based confocal microscopic analysis; type: functional, cell-based; details: dose 2-4 µM
HCT-116 [11] = assay: Upregulation of hedgehog signaling pathway in human HCT-116 cells at 2 uM incubated for 24 hrs by RNA sequencing analysis; type: functional, cell-based
HCT-116 [12] = assay: Antiproliferative activity against human HCT-116 cells assessed as inhibition of cell growth at 1 to 4 uM by CCK-8 assay; type: functional, cell-based; details: dose 1-4 µM, time <= 7.0 day, TDE = time-dependent effect
HCT-116 [13] = assay: Induction of apoptosis in human HCT-116 cells assessed as necrotic cells at 1 uM incubated for 24 hrs in presence of Z-VAD-FMK by annexin V FITC/propidium iodide staining based flow cytometry (reference value: 2.9 %); type: functional
A-375 = assay: Antiproliferative activity against human A-375 cells assessed as inhibition of cell growth measured after 48 hrs by MTT assay; type: functional, cell-based; details: A-375, 48 h
HCT-116 [14] = assay: Induction of apoptosis in p53 knockout human HCT-116 cells assessed as increase in caspase 3 expression upto 5 uM incubated for 24 hrs by Western blot analysis; type: functional, cell-based
KB = assay: Antiproliferative activity against human KB cells assessed as inhibition of cell growth measured after 48 hrs by MTT assay; type: functional, cell-based
HCT-116 [15] = assay: Induction of autophagy in ATG5 knockout human HCT-116 cells assessed as increase in LC3-II expression upto 4 uM measured after 24 hrs by Western blot analysis; type: functional, cell-based
HCT-116 [16] = assay: Induction of apoptosis in human HCT-116 cells assessed as late apoptotic cells at 2 uM incubated for 24 hrs by annexin V FITC/propidium iodide staining based flow cytometry (reference value: 4.6%); type: functional
SK-OV-3 = assay: Antiproliferative activity against human SK-OV-3 cells assessed as inhibition of cell growth measured after 48 hrs by MTT assay; type: functional, cell-based; details: SK-OV-3, 48 h
HCT-116 [17] = assay: Upregulation of inflammatory response gene in human HCT-116 cells at 2 uM incubated for 24 hrs by RNA sequencing analysis; type: functional, cell-based
HCT-116 [18] = assay: Induction of apoptosis in human HCT-116 cells assessed as early apoptotic cells at 1 uM incubated for 24 hrs in presence of Z-VAD-FMK by annexin V FITC/propidium iodide staining based flow cytometry (reference value: 6.3 %); type: functional
HCT-116 [19] = assay: Antiproliferative activity against human HCT-116 cells expressing ATG5-FLAG assessed as inhibition of cell growth measured after 24 hrs by CCK-8 assay; type: functional, cell-based; details: HCT-116, 24 h
[20] = Antiproliferative activity against human BIU-87 cells assessed as inhibition of cell growth measured after 48 hrs by MTT assay; type: functional, cell-based; details: BIU87, 48 h
HCT-116 [21] = assay: Induction of apoptosis in human HCT-116 cells assessed as early apoptotic cells at 1 uM incubated for 24 hrs by annexin V FITC/propidium iodide staining based flow cytometry (reference value: 4.7%); type: functional
HCT-116 [22] = assay: Downregulation of Myc-v2 in human HCT-116 cells at 2 uM incubated for 24 hrs by RNA sequencing analysis; type: functional, cell-based
BGC-823 = assay: Antiproliferative activity against human BGC-823 cells assessed as inhibition of cell growth measured after 48 hrs by MTT assay; type: functional, cell-based; details: BGC-823, 48 h
HCT-116 [23] = assay: Induction of apoptosis in human HCT-116 cells assessed as viable cells at 2 uM incubated for 24 hrs in presence of Z-VAD-FMK by annexin V FITC/propidium iodide staining based flow cytometry (reference value: 86.2 %); type: functional; details: read-out: Activity
HCT-116 [24] = assay: Induction of autophagy in human HCT-116 cells expressing ATG5-FLAG assessed as increase in LC3-II expression upto 4 uM measured after 24 hrs by Western blot analysis; type: functional, cell-based
HCT-116 [25] = assay: Induction of apoptosis in human HCT-116 cells assessed as viable cells at 1 uM incubated for 24 hrs by annexin V FITC/propidium iodide staining based flow cytometry (reference value: 83 %); type: functional; details: read-out: Activity
HCT-116 [26] = assay: Antiproliferative activity against ATG7 knockout human HCT-116 cells assessed as inhibition of cell growth measured after 24 hrs by CCK-8 assay; type: functional, cell-based; details: HCT-116, 24 h
CWR22R = assay: Antiproliferative activity against human 22Rv1 cells assessed as inhibition of cell growth measured after 48 hrs by MTT assay; type: functional, cell-based; details: 22Rv1, 48 h
HCT-116 [27] = assay: Induction of apoptosis in human HCT-116 cells assessed as increase in LC3-II expression upto 4 uM incubated for 24 hrs by Western blot analysis; type: functional, cell-based
HCT-116 [28] = assay: Induction of apoptosis in human HCT-116 cells assessed as increase in cleaved caspase 3 expression upto 5 uM incubated for 24 hrs by Western blot analysis; type: functional, cell-based
HCT-116 [29] = assay: Induction of morphological changes in human HCT-116 cells assessed as appearance of round cells at 2 to 6 uM measured after 24 hrs by microscopic analysis; type: functional, cell-based; details: dose 2-6 µM

CN1CCN(Cc2cc3c4ccccc4n(CCCc4ccccc4)c3c(CN3CCN(C)CC3)n2)CC1
Activity (HCT-116 [1]): 5.4% | Activity (CT26): Active | IC50 (ECa-109 cell line): 8.62 µM | Activity (HCT-116 [2]): 6.2% | Activity (HCT-116 [3]): 5.6% | Activity (HCT-116 [4]): Active | IC50 (HT-29): 2.02 µM | Activity (HCT-116 [5]): Active | inhibition (HCT-116 [6]): Active | Activity (HCT-116 [7]): inactive | Activity (HCT-116 [8]): inactive | Activity (HCT-116 [9]): Active | Activity (HCT-116 [10]): Active | Activity (HCT-116 [11]): Active | Activity (HCT-116 [12]): Tde | Activity (HCT-116 [13]): 3.6% | IC50 (A-375): 11.5 µM | Activity (HCT-116 [14]): inactive | IC50 (KB): 8.12 µM | Activity (HCT-116 [15]): inactive | Activity (HCT-116 [16]): 6.8% | IC50 (SK-OV-3): 10.6 µM | Activity (HCT-116 [17]): Active | Activity (HCT-116 [18]): 6.7% | IC50 (HCT-116 [19]): 4.57 µM | IC50 [20]: 4.53 µM | Activity (HCT-116 [21]): 5.1% | Activity (HCT-116 [22]): Active | IC50 (BGC-823): 24.8 µM | viability at 2 µM (HCT-116 [23]): 83.7% | Activity (HCT-116 [24]): Active | viability at 1 µM (HCT-116 [25]): 83.3% | IC50 (HCT-116 [26]): 7.89 µM | IC50 (CWR22R): 3.86 µM | Activity (HCT-116 [27]): Active | Activity (HCT-116 [28]): inactive | Activity (HCT-116 [29]): Active
